According to patent publication US11986471B2, “Compounds and methods of use” (Tango Therapeutics, Inc., priority 2018, dated 2024):

Experiments:
[1] = biological target: T1, PRMT5 (Homo sapiens, UniProt O14744); test: PRMT5 IC50 assay in the presence of SAM as cofactor; type: biochemical
T1 construct: purchased Viva (custom protein)
Outline: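 Potency against PRMT5 is compared across cofactor states, where IC50 equals Ki×1.5 with SAM present and Ki×13.5 with MTA present.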

[2] = biological target: T1, PRMT5; test: PRMT5 IC50 assay with no cofactor; type: biochemical
Outline: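 Three cofactor conditions are run: SAM-bound, MTA-bound and cofactor-free enzyme. IC50 is read from each; for the SAM and MTA arms it is divided by 1.5 and 13.5 respectively to give Ki.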

[3] = biological target: T1, PRMT5; test: PRMT5 IC50 assay in the presence of MTA as cofactor; type: biochemical; details: for IC50: PRMT5, MTA as cofactor; for SAM/MTA Ratio: ratio between the Ki in the presence of SAM and the Ki in the presence of MTA
Outline: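 Ki conversion: SAM arm, Ki=IC50/1.5; MTA arm, Ki=IC50/13.5. No-cofactor arm reported as IC50 only. Selectivity expressed as Ki(SAM)/Ki(MTA).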

[4] = system: HAP1 MTAP-intact; test: SDMA in-cell western assay, HAP1 MTAP-intact cell line; type: cell-based; details: Homo sapiens
Outline: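 Cells from two matched HAP1 lines, MTAP-null and MTAP-expressing at endogenous levels, are treated with compound. SDMA is then quantified by in-cell western and an IC50 is calculated for each line.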

[5] = system: HAP1 MTAP-deleted; test: SDMA in-cell western assay, HAP1 MTAP-deleted cell line; type: cell-based; details: for IC50: Homo sapiens, HAP1 MTAP-deleted cell line; for MTAP Intact/Deleted Ratio: IC50 ratio HAP1 MTAP-intact / HAP1 MTAP-deleted
Outline: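 MTAP-null HAP1 cells, the deleted member of an isogenic pair with endogenously MTAP-expressing HAP1, are treated with compound. SDMA is then quantified by in-cell western and an IC50 is calculated.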

T1 sequence (O14744 whole entry): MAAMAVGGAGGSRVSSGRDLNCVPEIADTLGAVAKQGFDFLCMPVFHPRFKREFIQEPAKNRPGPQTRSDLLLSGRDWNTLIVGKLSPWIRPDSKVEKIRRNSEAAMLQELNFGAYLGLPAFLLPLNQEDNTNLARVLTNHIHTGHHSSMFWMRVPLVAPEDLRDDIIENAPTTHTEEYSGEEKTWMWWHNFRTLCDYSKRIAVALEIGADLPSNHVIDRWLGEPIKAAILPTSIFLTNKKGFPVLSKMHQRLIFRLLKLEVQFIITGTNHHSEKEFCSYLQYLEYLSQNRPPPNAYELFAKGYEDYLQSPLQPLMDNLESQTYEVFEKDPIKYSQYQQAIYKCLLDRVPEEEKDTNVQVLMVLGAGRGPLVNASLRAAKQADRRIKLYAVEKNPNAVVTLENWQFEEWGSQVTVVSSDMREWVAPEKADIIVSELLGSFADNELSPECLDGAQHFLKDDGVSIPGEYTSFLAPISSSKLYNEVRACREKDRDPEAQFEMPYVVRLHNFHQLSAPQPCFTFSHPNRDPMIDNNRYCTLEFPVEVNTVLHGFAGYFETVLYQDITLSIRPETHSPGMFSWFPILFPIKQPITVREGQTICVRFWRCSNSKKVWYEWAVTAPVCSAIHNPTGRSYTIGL
T1 sequence (Q9BQA1 whole entry partner): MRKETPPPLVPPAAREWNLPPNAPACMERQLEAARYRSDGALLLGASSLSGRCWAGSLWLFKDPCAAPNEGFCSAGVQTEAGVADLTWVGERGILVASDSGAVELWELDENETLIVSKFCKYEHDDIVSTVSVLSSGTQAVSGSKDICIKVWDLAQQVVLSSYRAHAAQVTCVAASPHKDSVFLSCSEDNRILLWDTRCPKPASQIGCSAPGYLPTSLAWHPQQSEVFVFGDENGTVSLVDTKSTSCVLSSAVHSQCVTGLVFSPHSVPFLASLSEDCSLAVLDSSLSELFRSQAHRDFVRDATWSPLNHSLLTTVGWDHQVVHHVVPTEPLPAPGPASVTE

Compound | IC50 [1] [nM] | IC50 [2] [nM] | IC50 [3] [nM] | SAM/MTA Ratio [3] | IC50 [4] [nM] | IC50 [5] [nM] | MTAP Intact/Deleted Ratio [5]
CC(C)CC(=O)N1CCC(Nc2cc(C(=O)NC[C@H](O)CN3CCc4cc(OCc5cnco5)ccc4C3)ccn2)CC1 [Compound 446, N-[(2S)-2-hydroxy-3-[6-(oxazol-5-ylmethoxy)-3,4-dihydro-1H-isoquinolin-2-yl]propyl]-2-[[1-(3-methylbutanoyl)-4-piperidyl]amino]pyridine-4-carboxamide] | 50 to 500 | 500 to 5000 | < 50 | A (a Ki ratio greater than or equal to 10 fold between the Ki in the presence of SAM and the Ki in the presence of MTA) | 1000 to 10000 | < 1000 | C* (an IC50 ratio of less than 3 fold between the IC50 in the HAP1 MTAP-intact cell line and the HAP1 MTAP-deleted cell line)
Cc1c(OCc2cnco2)ccc2c1CCN(C[C@@H](O)CNC(=O)c1ccnc(NC3CCN(C(=O)CC(C)C)CC3)c1)C2 [Compound 447, (S)—N-(2-hydroxy-3-(5-methyl-6-(oxazol-5-ylmethoxy)-3N-dihydroisoquinolin-2(1H)-yl)propyl)-2-((1-(3-methylbutanoyl)piperidin-4-yl)amino)isonicotinamide] | 50 to 500 | 500 to 5000 | 50 to 500 | A (a Ki ratio greater than or equal to 10 fold between the Ki in the presence of SAM and the Ki in the presence of MTA) | ≥ 10000 | < 1000 | A* (an IC50 ratio greater than or equal to 10 fold between the IC50 in the HAP1 MTAP-intact cell line and the HAP1 MTAP-deleted cell line)
CN1CCN(c2cc(C(=O)NC[C@H](O)CN3CCc4cc(OCc5cnco5)ccc4C3)cc(NC3CCC3)n2)CC1 [Compound 448] | 50 to 500 | 500 to 5000 | 50 to 500 | A (a Ki ratio greater than or equal to 10 fold between the Ki in the presence of SAM and the Ki in the presence of MTA) | < 1000 | < 1000 | C* (an IC50 ratio of less than 3 fold between the IC50 in the HAP1 MTAP-intact cell line and the HAP1 MTAP-deleted cell line)
CC(C)(C)C(=O)N1CCC(Nc2cc(C(=O)NC[C@H](O)CN3CCc4cc(OCc5cnco5)ccc4C3)ccn2)CC1 [Compound 449, 2-[[1-(2,2-dimethylpropanoyl)-4-piperidyl]amino]-N-[(2S)-2-hydroxy-3-[6-(oxazol-5-ylmethoxy)-3,4-dihydro-1H-isoquinolin-2-yl]propyl]pyridine-4-carboxamide] | 50 to 500 | 500 to 5000 | 50 to 500 | A (a Ki ratio greater than or equal to 10 fold between the Ki in the presence of SAM and the Ki in the presence of MTA) | 1000 to 10000 | < 1000 | C* (an IC50 ratio of less than 3 fold between the IC50 in the HAP1 MTAP-intact cell line and the HAP1 MTAP-deleted cell line)
O=C(NC[C@H](O)CN1CCc2cc(OCc3cnco3)ccc2C1)c1ccnc(NC2CCN(C(=O)C3CC3)CC2)c1 [Compound 450, 2-[[1-(cyclopropanecarbonyl)-4-piperidyl]amino]-N-[(2S)-2-hydroxy-3-[6-(oxazol-5-ylmethoxy)-3,4-dihydro-1H-isoquinolin-2-yl]propyl]pyridine-4-carboxamide] | 50 to 500 | 500 to 5000 | 50 to 500 | A (a Ki ratio greater than or equal to 10 fold between the Ki in the presence of SAM and the Ki in the presence of MTA) | ≥ 10000 | < 1000 | A* (an IC50 ratio greater than or equal to 10 fold between the IC50 in the HAP1 MTAP-intact cell line and the HAP1 MTAP-deleted cell line)
CC(=O)N1CC(Nc2cc(C(=O)NC[C@H](O)CN3CCc4cc(OCc5cnco5)ccc4C3)ccn2)C1 [Compound 451] | 50 to 500 | 500 to 5000 | 50 to 500 | A (a Ki ratio greater than or equal to 10 fold between the Ki in the presence of SAM and the Ki in the presence of MTA) | ≥ 10000 | ≥ 10000 | C* (an IC50 ratio of less than 3 fold between the IC50 in the HAP1 MTAP-intact cell line and the HAP1 MTAP-deleted cell line)
CC(C)C(=O)N1CCC(Nc2cc(C(=O)NC[C@H](O)CN3CCc4c(ccc(OCc5cnco5)c4Cl)C3)ccn2)CC1 [Compound 452] | 50 to 500 | 500 to 5000 | 50 to 500 | A (a Ki ratio greater than or equal to 10 fold between the Ki in the presence of SAM and the Ki in the presence of MTA) | ≥ 10000 | 1000 to 10000 | B* (an IC50 ratio greater than or equal to 3 fold but lower than 10 fold between the IC50 in the HAP1 MTAP-intact cell line and the HAP1 MTAP-deleted cell line)
Cc1ncoc1COc1ccc2c(c1)CCN(C[C@@H](O)CNC(=O)c1cc(NC3COC3)nc(N3CCN(C(=O)C(C)C)CC3)n1)C2 [Compound 454, N-[(2S)-2-hydroxy-3-{6-[(4-methyl-1,3-oxazol-5-yl)methoxy]-1,2,3,4-tetrahydroisoquinolin-2-yl}propyl]-2-[4-(2-methylpropanoyl)piperazin-1-yl]-6-[(oxetan-3-yl)amino]pyrimidine-4-carboxamide] | 50 to 500 | 500 to 5000 | 50 to 500 | A (a Ki ratio greater than or equal to 10 fold between the Ki in the presence of SAM and the Ki in the presence of MTA) | 1000 to 10000 | < 1000 | B* (an IC50 ratio greater than or equal to 3 fold but lower than 10 fold between the IC50 in the HAP1 MTAP-intact cell line and the HAP1 MTAP-deleted cell line)
Cc1ncoc1COc1ccc2c(c1)CCN(C[C@@H](O)CNC(=O)c1cc(NC3CCC3)nc(N3CCN(C(=O)C4CC4)CC3)c1)C2 [Compound 455, 2-(cyclobutylamino)-6-(4-cvclopropanecarbonylpiperazin-1-yl)-N-[(2S)-2-hydroxy-3-{6-[(4-methyl-1,3-oxazol-5-yl)methoxy]-1,2,3,4-tetrahydroisoquinolin-2-yl}propyl]pyridine-4-carboxamide] | 50 to 500 | 50 to 500 | 50 to 500 | A (a Ki ratio greater than or equal to 10 fold between the Ki in the presence of SAM and the Ki in the presence of MTA) | < 1000 | < 1000 | B* (an IC50 ratio greater than or equal to 3 fold but lower than 10 fold between the IC50 in the HAP1 MTAP-intact cell line and the HAP1 MTAP-deleted cell line)
Cc1ncoc1COc1ccc2c(c1C)CCN(C[C@@H](O)CNC(=O)c1cc(NC3COC3)nc(N3CCN(C)CC3)n1)C2 [Compound 456, N-[(2S)-2-hydroxy-3-{5-methyl-6-[(4-methyl-1,3-oxazol-5-yl)methoxy]-1,2,3,4-tetrahydroisoquinolin-2-yl}propyl]-2-(4-methylpiperazin-1-yl)-6-[(oxetan-3-yl)amino]pyrimidine-4-carboxamide] | 50 to 500 | ≥ 5000 | 50 to 500 | A (a Ki ratio greater than or equal to 10 fold between the Ki in the presence of SAM and the Ki in the presence of MTA) | ≥ 10000 | 1000 to 10000 | C* (an IC50 ratio of less than 3 fold between the IC50 in the HAP1 MTAP-intact cell line and the HAP1 MTAP-deleted cell line)
